# Test results published in patent US20060257340A1, “Formulation for skin-lightening agents” (priority 2003, published 2006).
# “Also recorded” adds a separate entry of the source. Marks after values point to notes of the source that are not given here.
# Legend:
# [1] = test system: skin pigmentation of Yucatan swine; assay: Reversibility of depigmentation (repigmentation) after treatment discontinuation; assay type: in vivo; details: 6 weeks after discontinuation following 12 weeks of topical treatment; 1% 4-cyclopentylresorcinol, 2% 4-cyclohexylresorcinol in HG/DMI/PG/EtOH (5/15/40/40)
# Description: Each spot was topically treated with 20 μl of test solution applied twice daily, five days per week. This amounts to the same dose of active agent. Solutions were administered by pipetting the exact volume to the designated area with a micropipette and then spreading the solution. Each spot or test site on the animal's skin was graded 3 times a week on a scale of 0 to 4 for pigment change, erythema and scaling. Treatments were continued until pigmentation was reduced to a grade 1 level (marked uniform decrease in pigmentation) or for up to 12 weeks. Pigmentation was monitored for 6 weeks after discontinuation of treatment following 12 weeks of topical treatment with 1% 4-cyclopentylresorcinol and 2% 4-cyclohexylresorcinol in HG/DMI/PG/EtOH (5/15/40/40).
# [2] = test system: Yucatan swine skin; details: in vivo
# Description: Seven sites measuring approximately 3 cm×3 cm were marked on each side of the animal's spine, between the shoulder blade and hipbone. The sites were far enough apart so that there was no cross-over. Multiple treatments were performed on the back of each animal. Each animal in the experiment received the same treatments. Each spot was topically treated with 20 μl of test solution applied twice daily, five days per week. This amounts to the same dose of active agent. Solutions were administered by pipetting the exact volume to the designated area with a micropipette and then spreading the solution. Each spot or test site on the animal's skin was graded 3 times a week on a scale of 0 to 4 for pigment change, erythema and scaling. Treatments were continued until pigmentation was reduced to a grade 1 level (marked uniform decrease in pigmentation) or for up to 12 weeks.
# [3] = test system: skin pigmentation of Yucatan swine; assay: Depigmenting effect of topical application on dark-skinned Yucatan swine (pigment grade); assay type: in vivo; details: for Mean pigment Grade +/− SD (Week 12): topical 20 μl twice daily, five days per week; for Mean pigment Grade +/− SD (Week 12) / mean pigment grade +/− SD: scale 0 to 4, 4 = normal skin color; for mean pigment grade +/− SD: collated experiments; for effect of HG/PG/DMI/EtOH vehicle on depigmenting action: HG/PG/DMI/EtOH with or without 2% (wt/wt) IPM, compared with PG/EtOH
# Description: The following nonlimiting examples further illustrate certain preferred embodiments of the present invention. The formulations were tested experimentally on Yucatan swine with dark skin. The Yucatan pigskin shares many physiologic and morphologic characteristics with human skin. For example, as described in U.S. Pat. No. 5,470,567, the thickness and general morphology of epidermis and dermis, tritiated thymidine labeling pattern and index of epidermal cells, epidermal cell turnover time, as well as size, orientation, and distribution of vessels in skin are similar to that in humans. Varying concentrations of 4-cyclopentylresorcinol and 4-cyclohexylresorcinol were administered to the back of Yucatan swine using various carriers. Yucatan swine with dark skin were used in this study. Swine were obtained from Charles River Laboratories, Windham, Me., and Sinclair Laboratories, MO. Seven sites measuring approximately 3 cm×3 cm were marked on each side of the animal's spine, between the shoulder blade and hipbone. The sites were far enough apart so that there was no cross-over. Multiple treatments were performed on the back of each animal. Each animal in the experiment received the same treatments. Each spot was topically treated with 20 μl of test solution applied twice daily, five days per week. This amounts to the same dose of active agent. Solutions were administered by pipetting the exact volume to the designated area with a micropipette and then spreading the solution. Each spot or test site on the animal's skin was graded 3 times a week on a scale of 0 to 4 for pigment change, erythema and scaling. Treatments were continued until pigmentation was reduced to a grade 1 level (marked uniform decrease in pigmentation) or for up to 12 weeks. Results were analyzed using different types of statistical analysis, ANOVA, Kruskal-Wallis test and Dunnett's multiple comparison, as indicated below. ANOVA is a statistical test that assumes sampled data is from populations that follow a Gaussian bell-shaped distribution and which works well, especially with large numbers, even if the distribution is only approximately Gaussian. The Kruskal-Wallis test is a nonparametric test that compares three or more unpaired groups. The Dunnett's test is a procedure for comparing each experimental mean with the control mean. For each graph presented, it is indicated which statistical tests were performed.
# [4] = 2% in HG/PG/DMI/EtOH (5/40/15/40)
SMILES,repigmentation after discontinuation of treatment [1],irritation [2],"Mean pigment Grade +/− SD (Week 12) ([3]; 2% in DMI/HG/PG/EtOH, 0 = complete depigmentation)","mean pigment grade +/− SD [3, 4]",mean pigment grade +/− SD ([3]; 2% in HG/PG/DMI/EtOH + 2% IPM),mean pigment grade +/− SD ([3]; 2% in PG/EtOH (3/7)),mean pigment grade +/− SD ([3]; 5% in PG/EtOH (5/5)),effect of HG/PG/DMI/EtOH vehicle on depigmenting action [3],pigmentation versus the same agent in PG/EtOH vehicle ([3]; 1% and 2% in HG/PG/DMI/EtOH compared with PG/EtOH),"pigmentation versus vehicle control ([3]; 1% and 2% in HG/PG/DMI/EtOH, Kruskal-Wallis test and Dunnett's multiple comparison)","Mean pigment Grade +/− SD (Week 12) ([3]; 1% in DMI/HG/PG/EtOH, 0 = complete depigmentation)",mean pigment grade +/− SD ([3]; 1% in HG/PG/DMI/EtOH (5/40/15/40)),mean pigment grade +/− SD ([3]; 1% in HG/PG/DMI/EtOH + 2% IPM),"mean pigment grade +/− SD ([3]; 1% in PG/EtOH (3/7), 0 = complete depigmentation)"
Oc1ccc(C2CCCCC2)c(O)c1 [4-cyclohexylresorcinol],signs of gradual repigmentation,No irritation was apparent,3 +/− 0*,2.8 +/− 0.6*,2.4 +/− 1.1*,3.0 +/− 0.8,3.0 +/− 0*,improved the depigmenting action; also recorded: improved the depigmentation efficacy,–,–,–,–,–,–
Oc1ccc(C2CCCC2)c(O)c1 [4-cyclopentylresorcinol],signs of gradual repigmentation,No irritation was apparent,–,2.0 +/− 0.7*,1.4 +/− 0.9*,2.4 +/− 0.9*,–,improved the depigmentation efficacy,not statistically different,statistically different from vehicle,2.8 +/− 0.4*,2.8 +/−0.6*,2.0 +/− 1.2*,3.3 +/− 0.7
